This note sets out measurements from US8716303B2, “N-(hetero)aryl-pyrrolidine derivatives of pyrazol-4-yl-pyrrolo[2,3-d]pyrimidines and pyrrol-3-yl-pyrrolo[2,3-d]pyrimidines as janus kinase inhibitors” (Incyte Corporation, priority 2009, dated 2014).

Counter-ions that a name gives are not always drawn.

For one test, the target named is T1, Jak2 (a.a. 828-1132) (Homo sapiens, UniProt O60674).
T1 construct: Jak2 (a.a. 828-1132); His tag (N); made in house; host or cells: insect cells (baculovirus)
Description: In vitro JAK kinase assay (HTRF, phosphorylation of a biotinylated peptide), JAK2, reported as JAK2/JAK1 ratio. The test is classed as biochemical.

Test [1] deals with T2, human JAK1 (a.a. 837-1142) (Homo sapiens, UniProt P23458).
T2 construct: human JAK1 (a.a. 837-1142); His tag (N); made in house; host or cells: insect cells (baculovirus)
In words: In vitro JAK kinase assay (HTRF, phosphorylation of a biotinylated peptide), JAK1. It counts as biochemical. The essentials: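 His-tagged catalytic domains (JAK1 a.a. 837-1142, JAK2 a.a. 828-1132) from insect cells phosphorylate 500 nM biotinylated peptide in 50 mM Tris pH 7.8, 100 mM NaCl, 5 mM DTT; ATP at Km (90 μM JAK1, 30 μM JAK2) or 1 mM, as indicated. 1 h at RT; EDTA stop, HTRF readout; IC50s.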

Where [2] appears, read: Assay Conditions Km (ATP 90 μM for Jak1, 30 μM for Jak2).
The mark [3] stands for this setting: Assay Conditions Km (ATP 90 μM for Jak1).

T2 sequence (P23458 849-1154): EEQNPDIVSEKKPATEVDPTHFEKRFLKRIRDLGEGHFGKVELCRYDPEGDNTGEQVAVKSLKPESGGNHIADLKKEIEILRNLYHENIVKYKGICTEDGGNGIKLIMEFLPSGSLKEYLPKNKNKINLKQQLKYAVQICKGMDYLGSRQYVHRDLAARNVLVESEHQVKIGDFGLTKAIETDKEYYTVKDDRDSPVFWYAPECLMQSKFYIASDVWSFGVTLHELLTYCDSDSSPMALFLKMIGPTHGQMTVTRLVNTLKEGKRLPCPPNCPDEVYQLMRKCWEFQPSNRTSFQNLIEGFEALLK
T1 sequence (O60674 828-1132): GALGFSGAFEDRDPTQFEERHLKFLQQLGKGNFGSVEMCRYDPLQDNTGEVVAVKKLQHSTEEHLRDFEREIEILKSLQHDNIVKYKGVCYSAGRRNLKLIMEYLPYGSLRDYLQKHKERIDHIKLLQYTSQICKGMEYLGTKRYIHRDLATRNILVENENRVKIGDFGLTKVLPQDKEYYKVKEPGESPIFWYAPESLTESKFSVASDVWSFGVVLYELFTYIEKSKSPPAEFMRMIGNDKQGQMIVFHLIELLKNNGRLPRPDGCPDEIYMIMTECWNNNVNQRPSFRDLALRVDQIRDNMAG

For the compound `COc1ncc(F)c(N2CC[C@H]([C@H](CC#N)n3cc(-c4ncnc5[nH]ccc45)cn3)C2)n1` [Example 104, (S)-3-(4-(7H-pyrrolo[2,3-d]pyrimidin-4-yl)-1H-pyrazol-1-yl)-3-((S)-1-(5-fluoro-2-methoxypyrimidin-4-yl)pyrrolidin-3-yl)propanenitrile trifluoroacetate salt], the “JAK2/JAK1 IC50 ratio” value on Jak2 (a.a. 828-1132) (Assay Conditions 1 mM ATP) worked out at 5.9. The compound also came in with a half-inhibitory concentration (IC50) in test [1] (Assay Conditions 1 mM ATP) below 50 nM.

As to `N#CCC(C1CCN(c2ncc3c(c2C#N)SCC3)C1)n1cc(-c2ncnc3[nH]ccc23)cn1` (single isomer, unassigned) [Example 173, 6-(3-{2-cyano-1-[4-(7H-pyrrolo[2,3-d]pyrimidin-4-yl)-1H-pyrazol-1-yl]ethyl}pyrrolidin-1-yl)-2,3-dihydrothieno[3,2-c]pyridine-7-carbonitrile], the “JAK2/JAK1 IC50 ratio” value at Jak2 (a.a. 828-1132) (Assay Conditions 1 mM ATP) is above 27.3. Moreover, the IC50 in test [1] (Assay Conditions 1 mM ATP) is below 50 nM.

Take `N#CCC(C1CCN(c2nccc(C#N)c2C#N)C1)n1cc(-c2ncnc3[nH]ccc23)cn1` (racemic) [Example 39, ±2-(3-{2-cyano-1-[4-(7H-pyrrolo[2,3-d]pyrimidin-4-yl)-1H-pyrazol-1-yl]ethyl}pyrrolidin-1-yl)pyridine-3,4-dicarbonitrile trifluoroacetate]: the “JAK2/JAK1 IC50 ratio” value at Jak2 (a.a. 828-1132) (Assay Conditions 1 mM ATP) worked out at 15.5. The same compound gave a half-inhibitory concentration (IC50) in test [1] (Assay Conditions 1 mM ATP) below 50 nM.

With `N#Cc1ncccc1N1CC[C@H](C(CF)n2cc(-c3ncnc4[nH]ccc34)cn2)C1` (stereo partly drawn) [Example 117, 3-((3S)-3-{2-fluoro-1-[4-(7H-pyrrolo[2,3-d]pyrimidin-4-yl)-1H-pyrazol-1-yl]ethyl}pyrrolidin-1-yl)pyridine-2-carbonitrile trifluoroacetate], the “JAK2/JAK1 IC50 ratio” value on Jak2 (a.a. 828-1132) (Assay Conditions 1 mM ATP) was determined as 3.7. In addition, the IC50 in test [1] (Assay Conditions 1 mM ATP) is below 50 nM.

Take `CN(C)S(=O)(=O)Nc1nccc(N2CCC(C(CC#N)n3cc(-c4ncnc5[nH]ccc45)cn3)C2)n1` (single isomer, unassigned) [Example 151, N-[4-(3-{2-cyano-1-[4-(7H-pyrrolo[2,3-d]pyrimidin-4-yl)-1H-pyrazol-1-yl]ethyl}pyrrolidin-1-yl)pyrimidin-2-yl]-N,N-dimethylsulfonamide]: at Jak2 (a.a. 828-1132) (Assay Conditions 1 mM ATP), the “JAK2/JAK1 IC50 ratio” value is listed as 12.5. In addition, in test [1] (Assay Conditions 1 mM ATP), the IC50 is below 50 nM.

For `N#CC[C@@H]([C@H]1CCN(c2nc(Br)ccc2F)C1)n1cc(-c2ncnc3[nH]ccc23)cn1.O=C(O)C(F)(F)F.O=C(O)C(F)(F)F` [Example 88, (3S)-3-[(3S)-1-(6-bromo-3-fluoropyridin-2-yl)pyrrolidin-3-yl]-3-[4-(7H-pyrrolo[2,3-d]pyrimidin-4-yl)-1H-pyrazol-1-yl]propanenitrile bis(trifluoroacetate)], the “JAK2/JAK1 IC50 ratio” value at Jak2 (a.a. 828-1132) (Assay Conditions 1 mM ATP) is recorded as 40.0. This compound also yielded an IC50 in test [1] (Assay Conditions 1 mM ATP) below 50 nM.

Turning to `N#CCC(C1CCN(c2nc3cccnc3o2)C1)n1ccc(-c2ncnc3[nH]ccc23)c1` (single isomer, unassigned) [32, Step 2a, enantiomer 2], the “JAK2/JAK1 IC50 ratio” value on Jak2 (a.a. 828-1132) (setting [2]) is 5.7. The compound also registered an IC50 in test [1] (setting [3]) below 50 nM.

As to `N#CC[C@@H]([C@H]1CCN(c2ncc(C(F)F)nc2C#N)C1)n1cc(-c2ncnc3[nH]ccc23)cn1` [Example 138, 3-((3S)-3-{(1S)-2-cyano-1-[4-(7H-pyrrolo[2,3-d]pyrimidin-4-yl)-1H-pyrazol-1-yl]ethyl}pyrrolidin-1-yl)-6-(difluoromethyl)pyrazine-2-carbonitrile trifluoroacetate], at Jak2 (a.a. 828-1132) (Assay Conditions 1 mM ATP), the “JAK2/JAK1 IC50 ratio” value is given as 17.5. The compound further showed a 50% inhibitory concentration (IC50) in test [1] (Assay Conditions 1 mM ATP) below 50 nM.

As to `CS(=O)(=O)c1cccc(N2CCC(C(CC#N)n3cc(-c4ncnc5[nH]ccc45)cn3)C2)c1C#N` (racemic) [Example 41, ±2-(3-{2-cyano-1-[4-(7H-pyrrolo[2,3-d]pyrimidin-4-yl)-1H-pyrazol-1-yl]ethyl}pyrrolidin-1-yl)-6-(methylsulfonyl)benzonitrile], the “JAK2/JAK1 IC50 ratio” value at Jak2 (a.a. 828-1132) (Assay Conditions 1 mM ATP) is given as 11. The IC50 in test [1] (Assay Conditions 1 mM ATP) is below 50 nM.

Regarding `N#CCC(C1CCN(c2nc3cc(Cl)ccc3o2)C1)n1cc(-c2ncnc3[nH]ccc23)cn1` (single isomer, unassigned) [Example 10, 3-[1-(5-chloro-1,3-benzoxazol-2-yl)pyrrolidin-3-yl]-3-[4-(7H-pyrrolo[2,3-d]pyrimidin-4-yl)-1H-pyrazol-1-yl]propanenitrile], the “JAK2/JAK1 IC50 ratio” value on Jak2 (a.a. 828-1132) (setting [2]) was found to be 1.9. The compound further came in with an IC50 in test [1] (setting [3]) below 50 nM.

As for `N#CCC(C1CCN(c2nccc(Cl)n2)C1)n1cc(-c2ncnc3[nH]ccc23)cn1` (single isomer, unassigned) [Example 4a, 3-[1-(4-chloropyrimidin-2-yl)pyrrolidin-3-yl]-3-[4-(7H-pyrrolo[2,3-d]pyrimidin-4-yl)-1H-pyrazol-1-yl]propanenitrile], the “JAK2/JAK1 IC50 ratio” value at Jak2 (a.a. 828-1132) (setting [2]) is reported as 8.8. In test [1] (setting [3]), the IC50 is below 50 nM.

Consider `N#Cc1cccc(N2CC[C@H](C(CF)n3cc(-c4ncnc5[nH]ccc45)cn3)C2)c1C#N` (stereo partly drawn) [Example 121, 3-((3S)-3-{2-fluoro-1-[4-(7H-pyrrolo[2,3-d]pyrimidin-4-yl)-1H-pyrazol-1-yl]ethyl}pyrrolidin-1-yl)phthalonitrile trifluoroacetate], for which, at Jak2 (a.a. 828-1132) (Assay Conditions 1 mM ATP), the “JAK2/JAK1 IC50 ratio” value is 4.4. Besides, the 50% inhibitory concentration (IC50) in test [1] (Assay Conditions 1 mM ATP) was below 50 nM.

Turning to `O=S1(=O)CCc2ccc(N3CC[C@H](C(CF)n4cc(-c5ncnc6[nH]ccc56)cn4)C3)nc21` (stereo partly drawn) [Example 119, 4-(1-{1-[(3S)-1-(1,1-dioxido-2,3-dihydrothieno[2,3-b]pyridin-6-yl)pyrrolidin-3-yl]-2-fluoroethyl}-1H-pyrazol-4-yl)-7H-pyrrolo[2,3-d]pyrimidine trifluoroacetate], on Jak2 (a.a. 828-1132) (Assay Conditions 1 mM ATP), the “JAK2/JAK1 IC50 ratio” value was 7.6. Moreover, the IC50 in test [1] (Assay Conditions 1 mM ATP) is below 50 nM.

As to `CCOc1cccc2nc(N3CCC(C(CC#N)n4cc(-c5ncnc6[nH]ccc56)cn4)C3)oc12` (single isomer, unassigned) [Example 163, 3-(4-(7H-pyrrolo[2,3-d]pyrimidin-4-yl)-1H-pyrazol-1-yl)-3-(1-(7-ethoxybenzo[d]oxazol-2-yl)pyrrolidin-3-yl)propanenitrile], at Jak2 (a.a. 828-1132) (Assay Conditions 1 mM ATP), the “JAK2/JAK1 IC50 ratio” value is listed as 3.3. The compound further yielded an IC50 in test [1] (Assay Conditions 1 mM ATP) below 50 nM.

For `N#CCC(n1cc(-c2ncnc3[nH]ccc23)cn1)C1(F)CCN(c2nc3cccnc3o2)C1` (single isomer, unassigned) [31, Step 4b, enantiomer 2], the “JAK2/JAK1 IC50 ratio” value at Jak2 (a.a. 828-1132) (Assay Conditions 1 mM ATP) came out at 0.8. The compound also returned an IC50 in test [1] (Assay Conditions 1 mM ATP) of 100 to 500 nM.

In the case of `N#CCC(C1CCN(c2nc3cccnc3o2)C1)n1cc(-c2ncnc3[nH]ccc23)cn1` (single isomer, unassigned) [Example 13b, 3-(1-[1,3]oxazolo[5,4-b]pyridin-2-ylpyrrolidin-3-yl)-3-[4-(7H-pyrrolo[2,3-d]pyrimidin-4-yl)-1H-pyrazol-1-yl]propanenitrile], at Jak2 (a.a. 828-1132) (setting [2]), the “JAK2/JAK1 IC50 ratio” value is listed as 2.1. This compound also came in with a half-inhibitory concentration (IC50) in test [1] (setting [3]) below 50 nM.

As to `N#CC[C@@H]([C@H]1CCN(c2cccc(C#N)c2C#N)C1)n1cc(-c2ncnc3[nH]ccc23)cn1` [Example 49, 3-((3S)-3-{(1S)-2-cyano-1-[4-(7H-pyrrolo[2,3-d]pyrimidin-4-yl)-1H-pyrazol-1-yl]ethyl}pyrrolidin-1-yl)phthalonitrile trifluoroacetate], the “JAK2/JAK1 IC50 ratio” value at Jak2 (a.a. 828-1132) (Assay Conditions 1 mM ATP) was found to be 10.2. The compound also yielded an IC50 in test [1] (Assay Conditions 1 mM ATP) below 50 nM.

For the compound `N#CCC(C1CCN(c2cncc(Cl)n2)C1)n1cc(-c2ncnc3[nH]ccc23)cn1` (single isomer, unassigned) [1 (rac)], the “JAK2/JAK1 IC50 ratio” value on Jak2 (a.a. 828-1132) (setting [2]) stood at 3. For the same compound, in test [1] (setting [3]), the IC50 was below 50 nM.
